Entries after “also recorded” stand apart in the source; their conditions may differ.
Key:
IKZF2 = assay: Cellular degradation assay, eGFP-IKZF2Δ fusion with mCherry reporter in Flp-In 293 cells; format: cell-based; conditions: for IKZF2 GFP/RFP Relative Abundance: 5 h incubation, n=1; for DC50: half degradation at 5 h (DC50,5 h), triplicate, 11 point dose response
In short: (§1)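 DC50,5 h derived by variable-slope nonlinear fit of the per-well ratio of GFP-positive to mCherry-positive cells, imaged after 5 h compound exposure at 0.5% DMSO.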

SALL4 ZNF1-2 = biological target: T1, SALL4 ZNF1-2 (Homo sapiens, UniProt Q96SW2+Q9UJQ4); assay: Cellular degradation assay, eGFP-SALL4 ZnF1-2 fusion with mCherry reporter in Flp-In 293 cells; format: cell-based; conditions: 5 h incubation, n=1
T1 construct: IKZF1Δ, IKZF2Δ, GSPT1 and SALL4 ZnF1-2 were subcloned; expressed in transfected cells; host or cells: Flp-In 293
Experimental: IKZF1Δ, IKZF2Δ, GSPT1 and SALL4 ZnF1-2 were subcloned into mammalian pcDNA5/FRT Vector (Ampicillin and Hygromycin B resistant) modified to contain MCS-eGFP-P2A-mCherry. Stable cell lines expressing eGFP-protein fusion and mCherry reporter were generated using Flp-In™ 293 system. Plasmid (0.3 μg) and pOG44 (4.7 μg) DNA were preincubated in 100 μL of Opti-MEM® I (Gibco®, Life Technologies™) media containing 0.05 mg/mL Lipofectamine® 2000 (Invitrogen™) for 20 min and added to Flp-In™ 293 cells containing 1.9 ml of DMEM media (Gibco®, Life Technologies™) per well in a 6-well plate format (Falcon, 353046). Cells were propagated after 48 h and transferred into a 10 cm^2 plate (Corning, 430165) in DMEM media containing 50 μg/mL of Hygromycin B (REF 10687010, Invitrogen™) as a selection marker. Following 2-3 passage cycle, FACS (FACSAria™ II, BD) was used to enrich for cells expressing eGFP and mCherry. Cells stably expressing the IKZF1Δ, IKZF2Δ, GSPT1 or SALL4 Znf1-2 GFP fusions with mCherry reporter were seeded at 30-50% confluency in 384-well plates with 50 μL FluoroBrite™ DMEM media (Thermo Fisher Scientific, A18967) containing 10% FBS per well a day before compound treatment. Compound titrations were dispensed using a D300e Digital Dispenser (HP), normalized to 0.5% DMSO, and incubated with cells for 5 hours. The assay plate was imaged immediately using an Acumen® High Content Imager (TTP Labtech) with 488 nm and 561 nm lasers in […] grid per well format.
The resulting images were analyzed using CellProfiler™. A series of image analysis steps (‘image analysis pipeline’) was constructed. First, the red and green channels were aligned and cropped to target the middle of each well (to avoid analysis of heavily clumped cells at the edges), and a background illumination function was calculated for both red and green channels of each well individually and subtracted to correct for illumination variations across the 384-well plate from various sources of error. An additional step was then applied to the green channel to suppress the analysis of large auto fluorescent artifacts and enhance the analysis of cell specific fluorescence by way of selecting for objects under a given size, 30 A.U., and with a given shape, speckles. mCherry-positive cells were then identified in the red channel filtering for objects between 8-60 pixels in diameter and using intensity to distinguish between clumped objects. The green channel was then segmented into GFP positive and negative areas and objects were labeled as GFP positive if at least 40% of it overlapped with a GFP positive area. The fraction of GFP-positive cells/mCherry-positive cells in each well was then calculated, and the green and red images were rescaled for visualization.

IKZF1 = biological target: T2, IKZF1 (Homo sapiens, UniProt Q13422); assay: Cellular degradation assay, eGFP-IKZF1Δ fusion with mCherry reporter in Flp-In 293 cells; format: cell-based; conditions: for IKZF1 GFP/RFP Relative Abundance: 5 h incubation, n=1; for DC50: half degradation at 5 h (DC50,5 h), triplicate, 11 point dose response
T2 construct: expressed in transfected cells; host or cells: Flp-In 293
In short: as §1

CRBN and Helios (IKZF2) = biological target: T3, CRBN and Helios (IKZF2) (Homo sapiens, UniProt Q96SW2+Q9UKS7); assay: TR-FRET dimerization assay (CRBN-IKZF2 ternary complex formation); format: binding; conditions: for TR-FRET-IKZF2 (Normalized to CC-885): n=1
T3 construct: His (N); Strep (N)
In short: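 Compound-induced IKZF2 recruitment to CRBN was read as the 520/490 nm TR-FRET ratio after 15 min at rt. The mix held biotinylated IKZF2, BODIPY-labeled CRBN bound to DDB1 lacking the BPB propeller, tracer Tb-streptavidin and compound titrations; n=1, from ≥3 technical replicates per well.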

GSPT1 = GSPT1 (Homo sapiens, UniProt P15170+Q96SW2); assay: Cellular degradation assay, eGFP-GSPT1 fusion with mCherry reporter in Flp-In 293 cells; format: cell-based; parameters: expressed in transfected cells; host or cells: Flp-In 293; conditions: for GSPT1 GFP/RFP Relative Abundance: 5 h incubation, n=1; for DC50: half degradation at 5 h (DC50,5 h), triplicate, 11 point dose response
In short: as §1

[1] = compound concentration 2.00E−05
[2] = compound concentration 2.00E−06
[3] = compound concentration 2.00E−07
[4] = compound concentration 6.6667E−05
[5] = compound concentration 6.6667E−06
[6] = compound concentration 6.6667E−07 (667 nM)

T1 sequence (Q9UJQ4 378-438 limits assumed): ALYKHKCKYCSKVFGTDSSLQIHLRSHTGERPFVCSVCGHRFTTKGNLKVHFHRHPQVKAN
T1 sequence (Q96SW2 whole entry, the tested form may be a part): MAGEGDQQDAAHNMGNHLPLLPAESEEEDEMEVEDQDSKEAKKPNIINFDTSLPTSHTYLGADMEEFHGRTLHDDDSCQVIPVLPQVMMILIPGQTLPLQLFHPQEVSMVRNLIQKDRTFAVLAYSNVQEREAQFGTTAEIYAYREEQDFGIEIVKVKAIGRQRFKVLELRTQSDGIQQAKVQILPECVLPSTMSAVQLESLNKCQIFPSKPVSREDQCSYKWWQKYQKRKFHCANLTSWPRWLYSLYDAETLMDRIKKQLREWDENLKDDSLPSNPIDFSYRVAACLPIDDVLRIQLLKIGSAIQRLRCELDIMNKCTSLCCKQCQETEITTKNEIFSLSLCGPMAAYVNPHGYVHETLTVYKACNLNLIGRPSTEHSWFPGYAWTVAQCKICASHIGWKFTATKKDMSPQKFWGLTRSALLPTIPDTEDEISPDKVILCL
T1 sequence (Q16531 whole entry partner, the tested form may be a part): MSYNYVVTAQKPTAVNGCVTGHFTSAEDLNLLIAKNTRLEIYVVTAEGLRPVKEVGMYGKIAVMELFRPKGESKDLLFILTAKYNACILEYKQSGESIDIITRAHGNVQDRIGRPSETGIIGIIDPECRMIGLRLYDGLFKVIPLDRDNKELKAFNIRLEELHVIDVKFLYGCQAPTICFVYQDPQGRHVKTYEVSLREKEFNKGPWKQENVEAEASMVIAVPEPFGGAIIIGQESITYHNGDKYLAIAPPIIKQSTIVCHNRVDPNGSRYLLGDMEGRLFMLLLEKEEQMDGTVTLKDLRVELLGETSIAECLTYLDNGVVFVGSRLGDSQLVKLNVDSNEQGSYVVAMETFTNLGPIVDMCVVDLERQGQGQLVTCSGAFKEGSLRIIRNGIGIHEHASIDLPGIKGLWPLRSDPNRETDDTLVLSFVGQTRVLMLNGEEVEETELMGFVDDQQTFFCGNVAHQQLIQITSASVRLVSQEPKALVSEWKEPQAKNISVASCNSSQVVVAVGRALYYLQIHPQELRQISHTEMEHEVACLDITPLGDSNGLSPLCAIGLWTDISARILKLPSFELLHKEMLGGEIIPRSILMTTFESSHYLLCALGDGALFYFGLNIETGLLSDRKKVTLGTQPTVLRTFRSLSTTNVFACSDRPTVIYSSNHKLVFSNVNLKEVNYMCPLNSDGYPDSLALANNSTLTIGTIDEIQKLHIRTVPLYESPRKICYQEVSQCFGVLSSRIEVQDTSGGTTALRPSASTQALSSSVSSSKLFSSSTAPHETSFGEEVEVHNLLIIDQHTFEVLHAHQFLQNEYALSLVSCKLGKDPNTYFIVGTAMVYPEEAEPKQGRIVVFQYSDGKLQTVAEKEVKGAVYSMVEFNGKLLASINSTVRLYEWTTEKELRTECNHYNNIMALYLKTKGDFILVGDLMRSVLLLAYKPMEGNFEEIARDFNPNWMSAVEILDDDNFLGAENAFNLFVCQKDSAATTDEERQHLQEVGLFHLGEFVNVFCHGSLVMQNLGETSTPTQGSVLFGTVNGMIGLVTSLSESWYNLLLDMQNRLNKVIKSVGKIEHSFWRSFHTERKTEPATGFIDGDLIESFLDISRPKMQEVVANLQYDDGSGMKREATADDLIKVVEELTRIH
T2 sequence (Q13422 83-213 isoform Q13422-7 limits assumed): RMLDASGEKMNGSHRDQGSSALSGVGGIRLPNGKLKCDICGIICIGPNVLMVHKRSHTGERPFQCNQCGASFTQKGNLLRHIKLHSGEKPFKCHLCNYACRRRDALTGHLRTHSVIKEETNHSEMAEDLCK
T2 sequence (Q96SW2 whole entry partner, the tested form may be a part): as the sequence (Q96SW2 whole entry, the tested form may be a part) above
T2 sequence (Q16531 2-1140 partner limits assumed): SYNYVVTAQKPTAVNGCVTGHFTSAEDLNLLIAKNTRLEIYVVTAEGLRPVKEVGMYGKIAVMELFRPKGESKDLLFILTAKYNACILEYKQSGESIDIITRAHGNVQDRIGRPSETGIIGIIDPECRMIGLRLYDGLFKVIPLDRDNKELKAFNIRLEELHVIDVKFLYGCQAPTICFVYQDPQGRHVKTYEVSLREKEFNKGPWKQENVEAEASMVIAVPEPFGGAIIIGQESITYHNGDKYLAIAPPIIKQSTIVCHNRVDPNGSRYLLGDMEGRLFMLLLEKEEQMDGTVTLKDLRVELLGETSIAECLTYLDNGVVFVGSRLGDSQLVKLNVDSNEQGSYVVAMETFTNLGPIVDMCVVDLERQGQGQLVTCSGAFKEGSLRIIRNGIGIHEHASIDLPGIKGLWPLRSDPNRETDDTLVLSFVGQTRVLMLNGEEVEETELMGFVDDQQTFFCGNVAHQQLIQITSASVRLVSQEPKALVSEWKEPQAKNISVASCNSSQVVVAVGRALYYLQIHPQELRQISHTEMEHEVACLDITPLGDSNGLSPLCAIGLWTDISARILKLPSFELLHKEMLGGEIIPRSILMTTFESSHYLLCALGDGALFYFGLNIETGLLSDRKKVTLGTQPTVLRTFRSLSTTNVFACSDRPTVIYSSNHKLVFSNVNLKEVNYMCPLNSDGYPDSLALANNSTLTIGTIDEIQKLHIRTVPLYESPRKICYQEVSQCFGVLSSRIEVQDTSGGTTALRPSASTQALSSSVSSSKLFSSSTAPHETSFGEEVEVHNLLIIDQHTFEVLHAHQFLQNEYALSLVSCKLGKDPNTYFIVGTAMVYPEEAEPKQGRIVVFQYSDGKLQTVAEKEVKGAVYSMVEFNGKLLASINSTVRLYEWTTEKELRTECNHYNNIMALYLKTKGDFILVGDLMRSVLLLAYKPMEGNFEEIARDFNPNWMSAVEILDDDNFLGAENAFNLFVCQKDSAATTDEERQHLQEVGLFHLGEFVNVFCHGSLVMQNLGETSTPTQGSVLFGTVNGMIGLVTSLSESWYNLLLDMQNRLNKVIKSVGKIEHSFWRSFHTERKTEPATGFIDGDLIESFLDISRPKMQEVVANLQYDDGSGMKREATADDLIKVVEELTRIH
T3 sequence (Q96SW2 whole entry): as the sequence (Q96SW2 whole entry, the tested form may be a part) above
T3 sequence (Q9UKS7 whole entry): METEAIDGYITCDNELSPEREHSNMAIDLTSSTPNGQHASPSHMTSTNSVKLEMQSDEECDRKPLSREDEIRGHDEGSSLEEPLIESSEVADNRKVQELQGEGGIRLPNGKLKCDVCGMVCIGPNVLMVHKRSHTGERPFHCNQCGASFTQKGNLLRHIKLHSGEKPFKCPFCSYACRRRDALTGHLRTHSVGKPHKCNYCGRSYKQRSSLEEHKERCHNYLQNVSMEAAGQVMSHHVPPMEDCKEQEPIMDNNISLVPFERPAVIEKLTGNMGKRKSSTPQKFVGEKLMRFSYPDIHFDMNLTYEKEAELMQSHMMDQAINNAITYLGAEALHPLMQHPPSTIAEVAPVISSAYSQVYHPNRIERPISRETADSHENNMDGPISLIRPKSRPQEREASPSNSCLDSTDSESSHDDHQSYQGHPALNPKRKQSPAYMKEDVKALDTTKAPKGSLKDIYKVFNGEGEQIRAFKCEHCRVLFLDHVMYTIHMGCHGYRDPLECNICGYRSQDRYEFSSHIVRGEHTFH
GSPT1, sequence (P15170 whole entry, the tested form may be a part): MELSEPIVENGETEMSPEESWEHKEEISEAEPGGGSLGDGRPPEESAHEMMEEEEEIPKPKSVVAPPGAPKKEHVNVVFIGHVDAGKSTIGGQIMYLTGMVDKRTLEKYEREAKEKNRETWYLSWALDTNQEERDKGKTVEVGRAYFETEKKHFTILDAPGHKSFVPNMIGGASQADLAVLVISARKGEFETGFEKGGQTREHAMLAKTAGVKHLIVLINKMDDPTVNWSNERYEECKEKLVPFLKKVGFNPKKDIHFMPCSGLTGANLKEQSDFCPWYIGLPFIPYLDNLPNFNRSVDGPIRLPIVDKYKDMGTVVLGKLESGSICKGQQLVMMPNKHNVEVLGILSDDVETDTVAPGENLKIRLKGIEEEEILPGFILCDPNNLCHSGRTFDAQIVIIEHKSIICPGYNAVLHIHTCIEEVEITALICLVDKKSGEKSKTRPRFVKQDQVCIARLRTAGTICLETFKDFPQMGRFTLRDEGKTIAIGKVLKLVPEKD
GSPT1, sequence (Q96SW2 whole entry, the tested form may be a part): as the sequence (Q96SW2 whole entry, the tested form may be a part) above
GSPT1, sequence (Q16531 whole entry partner, the tested form may be a part): as the sequence (Q16531 whole entry partner, the tested form may be a part) above

Row | Compound | IKZF2 GFP/RFP Relative Abundance (IKZF2; [1]) | IKZF2 GFP/RFP Relative Abundance (IKZF2; [2]) | IKZF2 GFP/RFP Relative Abundance (IKZF2; [3]) | SALL4 ZNF1-2 GFP/RFP Relative Abundance (SALL4 ZNF1-2; [1]) | SALL4 ZNF1-2 GFP/RFP Relative Abundance (SALL4 ZNF1-2; [2]) | SALL4 ZNF1-2 GFP/RFP Relative Abundance (SALL4 ZNF1-2; [3]) | IKZF1 GFP/RFP Relative Abundance (IKZF1; [1]) | IKZF1 GFP/RFP Relative Abundance (IKZF1; [2]) | IKZF1 GFP/RFP Relative Abundance (IKZF1; [3]) | TR-FRET-IKZF2 (Normalized to CC-885) (CRBN and Helios (IKZF2); [4]) | TR-FRET-IKZF2 (Normalized to CC-885) (CRBN and Helios (IKZF2); [5]) | TR-FRET-IKZF2 (Normalized to CC-885) (CRBN and Helios (IKZF2); [6]) | GSPT1 GFP/RFP Relative Abundance (GSPT1; [1]) | GSPT1 GFP/RFP Relative Abundance (GSPT1; [2]) | GSPT1 GFP/RFP Relative Abundance (GSPT1; [3]) | other results
1 | Cc1ccc(NC(=O)NCc2ccc3c(c2)CN(C2CCC(=O)NC2=O)C3=O)cc1Cl (stereo not shown) [CC-885, reference compound] | 0.277 | 0.281 | 0.289 | 1.000 | 0.876 | 0.852 | 0.133 | 0.071 | 0.077 | 1.065 | 0.982 | 0.953 | 0.240 | 0.041 | 0.012 | IKZF2 cellular degradation, in words (IKZF2; Table 1 summary): degrade the IKZF2 in cellular assay; DC50 (IKZF2): 80.7 nM; DC50 (IKZF1): 0.56 nM; TR-FRET signal (520/490 ratio), CRBN-Helios dimerization, in words (CRBN and Helios (IKZF2); FIG. 1B, 2A, 5): some activity; also recorded: able to recruit IKZF2 to CRBN; DC50 (GSPT1): 0.084 nM
2 | O=C1CCC(N2C(=O)C=C(Nc3ccccc3)C2=O)C(=O)N1 (stereo not shown) [Compound 2, 3-(2,5-dioxo-3-(phenylamino)-2,5-dihydro-1H-pyrrol-1-yl)piperidine-2,6-dione] | 0.878 | 0.920 | 0.864 | 0.724 | 0.762 | 0.774 | 0.143 | 0.143 | 0.147 | 0.386 | 0.306 | 0.286 | 0.763 | 0.903 | 0.930 | 
3 | Cc1ccc(NC2=CC(=O)N(C3CCC(=O)NC3=O)C2=O)cc1Cl (stereo not shown) [Compound 3, 3-(3-((3-chloro-4-methylphenyl)amino)-2,5-dioxo-2,5-dihydro-1H-pyrrol-1-yl)piperidine-2,6-dione] | 1.032 | 0.973 | 0.979 | 0.914 | 0.884 | 0.879 | 0.242 | 0.370 | 0.349 | 0.357 | 0.267 | 0.253 | 1.204 | 1.006 | 1.190 | 
4 | Cc1cc(NC2=CC(=O)N(C3CCC(=O)NC3=O)C2=O)ccc1Cl (stereo not shown) [Compound 4, 3-(3-((4-chloro-3-methylphenyl)amino)-2,5-dioxo-2,5-dihydro-1H-pyrrol-1-yl)piperidine-2,6-dione] | 0.925 | 1.028 | 1.002 | 0.862 | 0.850 | 0.903 | 0.314 | 0.433 | 0.550 | 0.485 | 0.411 | 0.270 | 0.922 | 0.904 | 0.750 | 
5 | Cc1ccc(NC2=CC(=O)N(C3CCC(=O)NC3=O)C2=O)cc1C#N (stereo not shown) [Compound 5, 5-((1-(2,6-dioxopiperidin-3-yl)-2,5-dioxo-2,5-dihydro-1H-pyrrol-3-yl)amino)-2-methylbenzonitrile] | 0.930 | 1.000 | 1.020 | 1.008 | 0.946 | 0.992 | 0.395 | 0.478 | 0.650 | 0.376 | 0.296 | 0.187 | 0.714 | 0.843 | 1.050 | 
6 | COC(=O)CNC1=CC(=O)N(C2CCC(=O)NC2=O)C1=O (stereo not shown) [Compound 13, Methyl (1-(2,6-dioxopiperidin-3-yl)-2,5-dioxo-2,5-dihydro-1H-pyrrol-3-yl)glycinate] | 1.040 | 1.005 | 1.070 | 0.962 | 1.017 | 1.017 | 1.069 | 1.076 | 1.058 | 0.032 | 0.028 | 0.019 | 1.172 | 1.162 | 1.004 | 
7 | COC(=O)CCNC1=CC(=O)N(C2CCC(=O)NC2=O)C1=O (stereo not shown) [Compound 14, Methyl 3-((1-(2,6-dioxopiperidin-3-yl)-2,5-dioxo-2,5-dihydro-1H-pyrrol-3-yl)amino)propanoate] | 1.022 | 0.982 | 1.040 | 0.955 | 0.944 | 0.983 | 1.033 | 1.031 | 1.043 | 0.046 | 0.040 | 0.022 | 1.058 | 1.018 | 0.915 | 
8 | CCC(NC(=O)Nc1ccc(C)c(Cl)c1)c1cccc(NC2=CC(=O)N(C3CCC(=O)NC3=O)C2=O)c1 (stereo not shown) [Compound 74, 1-(3-chloro-4-methylphenyl)-3-(1-(3-((1-(2,6-dioxopiperidin-3-yl)-2,5-dioxo-2,5-dihydro-1H-pyrrol-3-yl)amino)phenyl)propyl)urea] | 0.021 | 0.033 | 0.032 |  |  |  | 0.096 | 0.090 | 0.114 | 2.010 | 1.914 | 1.817 |  |  |  | potency of IKZF2 degradation, in words (IKZF2; Table 3 summary): most potent against IKZF2; degradation selectivity IKZF2/IKZF1 (IKZF2; from DC50 values of Table 3): ~4 fold; DC50 (IKZF2): 1.9 nM; DC50 (IKZF1): 7.8 nM; DC50 (GSPT1): > 1000 nM

Reference: patent US12227488B2, “Small molecule degraders of Helios and methods of use” (DANA-FARBER CANCER INSTITUTE, INC., priority 2018, dated 2025)
